Data as given in patent US6900193B1, “Structural modification of 19-norprogesterone I: 17-α-substituted-11-β-substituted-4-aryl and 21-substituted 19-norpregnadienedione as new antiprogestational agents” (The United States of America as represented by the …, priority 1996, dated 2005).
Entries after “also recorded” stand apart in the source; their conditions may differ.

Legend:
[1] = target: T1, glucocorticoid receptor (estrogen-primed rabbit thymus) (Oryctolagus cuniculus, UniProt P59667); assay: Relative binding affinity, glucocorticoid receptor; settings: for BINDING AFFINITY Glucocortic: Table 2; for BINDING AFFINITY Glucocortic / RELATIVE BINDING AFFINITY Glucocorticoid: estrogen-primed rabbit thymus, dexamethasone = 100%
T1 construct: preparation of cytosols for the progesterone and glucocorticoid receptor assays; from tissue; host or cells: thymus of estradiol-primed immature female New Zealand White rabbits (cytosol)
T1 sequence (P59667 1-772): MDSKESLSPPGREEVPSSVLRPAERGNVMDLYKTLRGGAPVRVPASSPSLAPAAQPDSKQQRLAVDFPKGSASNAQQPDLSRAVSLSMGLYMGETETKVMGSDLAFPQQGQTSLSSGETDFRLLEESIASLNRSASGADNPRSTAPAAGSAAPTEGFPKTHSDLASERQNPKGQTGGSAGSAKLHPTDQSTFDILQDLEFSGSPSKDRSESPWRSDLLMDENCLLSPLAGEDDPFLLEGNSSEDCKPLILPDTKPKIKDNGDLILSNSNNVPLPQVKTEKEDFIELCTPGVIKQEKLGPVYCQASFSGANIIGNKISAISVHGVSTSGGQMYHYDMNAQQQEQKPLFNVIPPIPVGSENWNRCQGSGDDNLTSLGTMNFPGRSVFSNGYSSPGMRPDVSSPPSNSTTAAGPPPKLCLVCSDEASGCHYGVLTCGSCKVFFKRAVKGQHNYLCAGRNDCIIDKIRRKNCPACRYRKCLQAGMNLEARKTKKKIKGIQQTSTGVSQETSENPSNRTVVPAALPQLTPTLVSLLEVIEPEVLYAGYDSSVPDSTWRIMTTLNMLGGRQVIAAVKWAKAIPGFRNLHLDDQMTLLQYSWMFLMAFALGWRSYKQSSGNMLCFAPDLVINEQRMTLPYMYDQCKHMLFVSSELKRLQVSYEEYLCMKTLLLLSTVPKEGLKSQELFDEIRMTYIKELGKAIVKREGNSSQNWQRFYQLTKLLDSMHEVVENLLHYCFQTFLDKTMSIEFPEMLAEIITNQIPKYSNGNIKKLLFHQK
Procedure: (§1) Relative Binding Affinities for the Progesterone and Glucocorticoid Receptors
(§2) Uteri and thymus glands were obtained from estradiol-primed immature female rabbits of the New Zealand White strain for preparation of cytosols for the progesterone and glucocorticoid receptor assays, respectively. Tissues were excised and immediately placed in ice cold TEGDM buffer (10 mM Tris, pH 7.4; 1.5 mM EDTA; 10% glycerol vol/vol/; 1 mM dithiothreitol [DTT]; and 20 mM sodium molybdate). The tissues were dissected free of connective tissue and fat, weighed and minced finely. Minced tissues were homogenized in 3 volumes TEGDM/gm with four 10 second bursts of a VirTis Cyclone set at half maximum speed with a 30 second cooling period (in ice) between bursts. Homogenates were centrifuged at 109,663 g at 4° C. for 1 hour to yield the soluble cytosol fiction. Aliquots of cytosol were snap frozen and stored at −75° C.
(§3) All binding assays were carried out at 2-6° C. for 16-18 hours. The following radioactive ligands were used: [1,2-^3H(N)]-progesterone (50.0 Ci/mmole) for the progesterone receptor (PR). […] For the progesterone receptor RBA assays 0.02 ml uterine cytosol or TEDGM buffer, 0.05 ml of various concentrations of test compounds or progesterone, 0.13 ml TEGDM buffer and 0.05 ml [^3H]-progesterone were added to duplicate tubes. For the glucocorticoid receptor RBA assays 0.1 ml thymus cytosol or TEDGM buffer, 0.05 ml of various concentrations of test compounds or dexamethasone, 0.05 ml TEGDM buffer and 0.05 ml [3H]-dexamethasone were added to duplicate tubes. For the estrogen receptor RBA assays 0.05 ml uterine cytosol, 0.1 ml TEGDM buffer, 0.05 ml of various concentrations of test compounds or estradiol and 0.05 ml [^3H]-estradiol were added to duplicate tubes. The concentrations of the test compounds, progesterone, dexamethasone and estradiol ranged from 0.05 to 100 nM and the concentrations of the competitors ranged from 0.5 to 500 nM. Total binding was measured at radioligand concentrations of 3.5 nM and nonspecific binding was measured in the presence of a 200-fold excess of unlabeled progesterone (PR), dexamethasone (GR) or diethylstilbestrol (ER), respectively.
(§4) In all incubations bound and free ligand were separated using dextra-coated charcoal (DCC). A 0.1 ml aliquot of DCC (0.5% charcoal/0.05% Dextran T-70) was added to each tube. The tubes were vortexed and incubated on ice for 10 minutes. Five-tenths ml TEG buffer (without DTT or molybdate) was then added to all tubes to improve supernatant recovery following centrifugation. The charcoal was pelleted by centrifugation at 2,100 g for 15 minutes at 4° C. The supernatants containing the [^3H]-steroid receptor complexes were decanted into vials containing 4 ml Optifluor (Packard Instrument Co.), vortexed, equilibrated in a liquid scintillation counter for 30 minutes and then counted for 2 minutes. This provided the quantity of receptor bound [^3H]-steroid at each competitor concentration.

[2] = test system: progesterone-induced endometrial proliferation; assay: AntiClauberg test; assay type: in vivo, rabbit; set-up: key to ANTIPROGESTATIONAL Anti-Clauberg: relative oral potency vs. reference compound set to 100; settings: for BIOLOGICAL ACTIVITY antiClauberg: Table 2; for BIOLOGICAL ACTIVITY antiClauberg / ANTIPROGESTATIONAL Anti-Clauberg: CDB-2914 = 100 (assigned); for ANTIPROGESTATIONAL Anti-Clauberg: relative potency; for antiClauberg / oral antiprogestational activity, in words: versus the standard 69B
Procedure: AntiClauberg Test (Clauberg, C., Zentr. Gynakol., 54:2757-2770 (1930)) Immature female rabbits of the New Zealand White breed (approx. 1 kg body weight) were maintained under standard laboratory conditions and received a subcutaneous injection of 5 μg estradiol in 10% ethanol/sesame oil daily for 6 consecutive days. Twenty-four hours after the last dose of estradiol (day 7) animals received progesterone by subcutaneous injection (0.8 mg/day) and the experimental compound in appropriate vehicle (usually 10% ethanol/sesame oil) orally or subcutaneously for five consecutive days. One group of rabbits received progesterone only. Twenty-four hours after the last dose all animals were sacrificed for removal of the uterus which was cleaned of all fat and connective tissue, weighed to the nearest 0.2 mg and placed in 10% neutral buffered formalin for subsequent histological processing. Five micron sections stained with hematoxylin and eosin (H&E) were evaluated microscopically for the degree of endometrial glandular proliferation according to the method of McPhail (McPhail, supra). The percent inhibition of endometrial proliferation at each dose level of the experimental compound was derived by comparison with the progesterone-stimulated animals alone.

[3] = target: T2, progesterone receptor (estrogen-primed rabbit uterus) (Oryctolagus cuniculus, UniProt P06186); assay: Relative binding affinity, progesterone receptor; settings: for BINDING AFFINITY Progester: Table 2; for BINDING AFFINITY Progester / RELATIVE BINDING AFFINITY Progesterone: estrogen-primed rabbit uterus, progesterone = 100%; for binding affinities compared with the standard, compound 69B: progesterone receptor implied (rabbit or human isoform A not specified)
T2 construct: preparation of cytosols for the progesterone and glucocorticoid receptor assays; from tissue; host or cells: uterus of estradiol-primed immature female New Zealand White rabbits (cytosol)
T2 sequence (P06186 1-930): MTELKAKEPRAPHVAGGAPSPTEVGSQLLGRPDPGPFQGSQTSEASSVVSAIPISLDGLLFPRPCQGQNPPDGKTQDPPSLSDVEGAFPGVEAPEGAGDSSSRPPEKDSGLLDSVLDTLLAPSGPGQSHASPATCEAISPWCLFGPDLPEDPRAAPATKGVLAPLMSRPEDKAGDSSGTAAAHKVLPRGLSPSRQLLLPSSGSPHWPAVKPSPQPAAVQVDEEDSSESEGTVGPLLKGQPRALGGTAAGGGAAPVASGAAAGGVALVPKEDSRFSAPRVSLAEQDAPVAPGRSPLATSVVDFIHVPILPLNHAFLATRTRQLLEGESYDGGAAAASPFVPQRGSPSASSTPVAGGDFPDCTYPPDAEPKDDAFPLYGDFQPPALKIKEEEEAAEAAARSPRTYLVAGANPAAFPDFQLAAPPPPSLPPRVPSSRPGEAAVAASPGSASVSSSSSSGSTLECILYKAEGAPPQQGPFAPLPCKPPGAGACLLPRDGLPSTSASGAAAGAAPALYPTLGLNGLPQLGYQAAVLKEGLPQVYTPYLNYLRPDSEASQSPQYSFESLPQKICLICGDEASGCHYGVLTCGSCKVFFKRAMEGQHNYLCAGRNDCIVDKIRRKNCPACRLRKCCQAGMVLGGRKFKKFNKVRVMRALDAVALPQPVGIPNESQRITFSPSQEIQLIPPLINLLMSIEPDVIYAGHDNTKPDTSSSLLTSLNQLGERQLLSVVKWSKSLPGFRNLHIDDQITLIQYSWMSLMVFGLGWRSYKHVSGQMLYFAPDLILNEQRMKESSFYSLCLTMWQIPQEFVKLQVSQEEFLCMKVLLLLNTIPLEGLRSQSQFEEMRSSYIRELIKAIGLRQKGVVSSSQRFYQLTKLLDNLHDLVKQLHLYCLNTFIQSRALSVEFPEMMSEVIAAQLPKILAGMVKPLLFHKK
Procedure: as §1, §2, §3, §4

| Compound | BINDING AFFINITY Progester [3] [%] | RELATIVE BINDING AFFINITY Glucocorticoid [1] [%] | ANTIPROGESTATIONAL Anti-Clauberg ([2]; oral) | antiClauberg / oral antiprogestational activity, in words ([2]; oral) | RELATIVE BINDING AFFINITY Progesterone [3] [%] | binding affinities compared with the standard, compound 69B [3] | further results |
| --- | --- | --- | --- | --- | --- | --- | --- |
| 17α-Acetoxy-11β-[4-(N,N-diethylamino)phenyl]-21-thiocyanato-19-norpregna-4,9-diene-3,20-dione [Compound 138] | 63 | – | – | – | – | – | BINDING AFFINITY Glucocortic [1]: 14%; BIOLOGICAL ACTIVITY antiClauberg ([2]; oral): 57 |
| COCC(=O)[C@@]1(OC(C)=O)CC[C@H]2[C@@H]3CCC4=CC(=O)CCC4=C3[C@@H](c3ccc(N(C)C)cc3)C[C@@]21C [Compound 38, 17α-acetoxy-21-methoxy-11β-(4-N,N-dimethylaminophenyl)-19-norpregna-4,9-diene-3,20-dione] | – | 52 | 361 | greater activity than the standard | 103 | binding affinities greater than that observed for the standard | binding affinity for the glucocorticoid receptor, in words ([1]; rabbit thymus, versus CDB-2914 (69B) where stated): substantial reduction in glucocorticoid binding affinity; also recorded: low binding affinity; antiprogestational potency compared to the lead compound (CDB-2914), oral antiClauberg test ([2]; oral, versus CDB-2914): 3.61 times |
| CC(=O)O[C@]1(C(=O)COC(=O)CCC2CCCC2)CC[C@H]2[C@@H]3CCC4=CC(=O)CCC4=C3[C@@H](c3ccc(N(C)C)cc3)C[C@@]21C [Compound 40, 17α-acetoxy-21-(3′-cyclopentylpropionyloxy)-11β-[4-(N,N-dimethylamino)phenyl]-19-norpregnadiene-3,20 dione] | – | 37 | 155 | greater activity than the standard | 74 | – | more potent in the antiClauberg test than the lead compound ([2]; versus CDB-2914): about 50% |
| CCOCC(=O)[C@@]1(OC(C)=O)CCC2C3CCC4=CC(=O)CCC4=C3C(c3ccc(N(C)C)cc3)C[C@@]21C (stereo partly drawn) [Compound 46, 17α-acetoxy-21-ethoxy-11β-[4-(N,N-dimethylamino)phenyl]-9-norpregna-4,9-diene-3,20-dione] | – | 46 | 130-210 | greater activity than the standard | 83 | – | – |
| CC(=O)O[C@]1(C(C)=O)CC[C@H]2[C@@H]3CCC4=CC(=O)CCC4=C3[C@@H](c3ccc(N4CCCC4)cc3)C[C@@]21C [Compound 70, 17α-Acetoxy-11β-[4-(N-pyrrolidino)phenyl]-19-norpregna-4,9-diene-3,20-dione] | 79 | – | – | – | – | – | BIOLOGICAL ACTIVITY antiClauberg ([2]; oral): ˜25 |
| CC(=O)OC1(C(C)=O)CCC2C3CCC4=CC(=O)CCC4=C3C(c3ccc(C(C)=O)cc3)CC21C (stereo not drawn) [Compound 73, 17α-Acetoxy-11β-(4-acetylphenyl)-19-norpregna-4,9-diene-3,20-dione] | – | – | – | – | – | binding affinities greater than that observed for the standard | – |
| COCC(=O)C1(OC)CCC2C3CCC4=CC(=O)CCC4=C3C(c3ccc(N4CCCC4)cc3)CC21C (centres unmarked) [Compound 113b] | 59 | – | – | – | – | – | BINDING AFFINITY Glucocortic [1]: 34% |
| COCC(=O)C1(OC)CCC2C3CCC4=CC(=O)CCC4=C3C(c3ccc(C(C)=O)cc3)CC21C (stereo not drawn) [Compound 113d, 17α,21-Dimethoxy-11β-(4-acetylphenyl)-19-norpregna-4,9-diene-3,20-dione] | – | – | – | – | – | binding affinities greater than that observed for the standard | – |
| COCC(=O)C1(O)CCC2C3CCC4=CC(=O)CCC4=C3C(c3ccc(C(C)=O)cc3)CC21C (stereo not drawn) [Compound 122b, 17α-Hydroxy-11β-(4-acetylphenyl)-21-methoxy-19-norpregna-4,9-diene-3,20-dione] | – | – | – | – | – | binding affinities greater than that observed for the standard | – |
